# Laboratory results published in patent US8058242B2, “Chimeric proteins with natriuretic activity” (The University of Queensland, priority 2004, dated 2011).
# Positions of bridges follow the written chain, without caps; N, C: chain ends. Residues, ends and D or L forms follow the SMILES beside them.
# Columns and labels:
# pepsin = experiment: Stability to enzymatic degradation by pepsin (Example 16); format: in vitro ADME
# From the text: (§1) The stability of TDT and was investigated using the same enzymatic degradation assays (NEP, plasmin, pepsin) disclosed in Example 7. […] It is also evident that the increased NEP stability cannot be explained by the length of the tail region alone as the NEP cleavage site residues at the N-terminal end of the loop region.
# [1] = molecular target: T1, NPR-A signaling in HeLa cells (Homo sapiens, UniProt P16066); experiment: cGMP AlphaScreen assay in HeLa cells (Examples 14, 15); format: cell-based; conditions: 30 minutes at 37° C.
# T1 construct: Cyclic GMP (cGMP) elevation in HeLa cells in response to Natriuretic Peptide stimulation; endogenous in cells; host or cells: HeLa cells
# T1 sequence (P16066 33-1061): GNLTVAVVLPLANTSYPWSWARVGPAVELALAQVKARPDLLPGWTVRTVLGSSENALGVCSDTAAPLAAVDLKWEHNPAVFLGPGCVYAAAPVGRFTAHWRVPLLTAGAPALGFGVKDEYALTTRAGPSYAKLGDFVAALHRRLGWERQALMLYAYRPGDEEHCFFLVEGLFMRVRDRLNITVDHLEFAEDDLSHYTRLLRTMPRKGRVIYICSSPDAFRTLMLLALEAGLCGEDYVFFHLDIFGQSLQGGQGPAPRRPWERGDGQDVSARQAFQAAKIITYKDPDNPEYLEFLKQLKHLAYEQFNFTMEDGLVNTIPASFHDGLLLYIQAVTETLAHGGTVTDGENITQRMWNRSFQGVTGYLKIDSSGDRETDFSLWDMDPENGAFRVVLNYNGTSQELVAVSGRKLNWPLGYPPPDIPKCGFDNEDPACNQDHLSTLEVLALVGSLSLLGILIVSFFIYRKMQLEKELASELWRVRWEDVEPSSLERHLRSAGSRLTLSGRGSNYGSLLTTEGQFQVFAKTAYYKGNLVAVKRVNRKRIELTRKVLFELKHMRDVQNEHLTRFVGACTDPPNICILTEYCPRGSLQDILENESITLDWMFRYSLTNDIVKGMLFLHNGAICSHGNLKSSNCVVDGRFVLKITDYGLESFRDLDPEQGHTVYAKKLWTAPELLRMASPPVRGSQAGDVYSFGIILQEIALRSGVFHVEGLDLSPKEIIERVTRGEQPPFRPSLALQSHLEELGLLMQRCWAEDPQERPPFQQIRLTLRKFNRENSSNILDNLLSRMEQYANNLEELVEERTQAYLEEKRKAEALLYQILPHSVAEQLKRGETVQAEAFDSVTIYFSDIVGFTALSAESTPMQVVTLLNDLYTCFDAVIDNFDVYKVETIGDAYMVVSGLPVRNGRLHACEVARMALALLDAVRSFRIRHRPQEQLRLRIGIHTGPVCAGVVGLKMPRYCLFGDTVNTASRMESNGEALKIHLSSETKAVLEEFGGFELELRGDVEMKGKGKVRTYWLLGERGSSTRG
# Protocol: HeLa cells were maintained in RPMI cell culture medium (Gihco Invitrogen, Mt Waverley, Australia) supplemented with 10% Foetal Bovine Serum (Cambrex Bio Science, Rockland, USA). Upon reaching confluence, cells were sub-cultured such that they would be 70-90% confluent at time of assay.
# Cyclic GMP (cGMP) elevation in HeLa cells in response to Natriuretic Peptide stimulation was performed using a cGMP AlphaScreen kit (PerkinElmer, Boston, USA), as follows for normal experiments: Cells were detached, pelleted to remove growth medium, and resuspended in Stimulation Buffer (Hank's Balanced Salt Solution, 0.1% Bovine Serum Albumin [BSA] (Sigma-Aldrich, Castle Hill, Australia), 1 mM 3-Isobutyl-1-methylxanthine [IBMX] (Sigma-Aldrich, Castle Hill, Australia)) and diluted to 6×10^6 cells per mL (30 000 cells per 5 μL). 5 μL of cells were added to wells of white 384-well OptiPlates (PerkinElmer, Boston, USA), and stimulated with increasing concentrations of peptide for 30 minutes at 37° C. Cells were then lysed with 10 μL Lysis buffer (dH2O, 0.3% Tween-20 (Sigma-Aldrich, Castle Hill, Australia), 5 mM HEPES (JRH Biosciences, Kansas, USA) and 0.1% BSA) and 5 μL acceptor bead mix (10 μL per mL acceptor beads and 1/3000 anti-cGMP antibody (BioVision, Mountain View, USA) in lysis buffer) added per well in the dark. Plates were incubated in the dark at room temperature for 30 minutes, then 5 μL donor bead mix (10 μL per ML donor beads and 0.3 nM biotinylated cGMP in lysis buffer) was added per well in the dark and the plate incubated overnight at room temperature. Signal was read using an EnVision plate reader (PerkinElmer, Boston, USA) and data analysed using Prism software. The cGMP standard curve was performed as per manufacturer's instructions.
# To examine whether TNPc and synthetic analogs produced in the inventors' laboratory could stimulate NPR-A signaling, cGMP elevations in HeLa cells in response to these peptides were measured, as described above.
# Plasmin = molecular target: T2, Plasmin (Homo sapiens, UniProt P00747); experiment: Stability to enzymatic degradation by plasmin (Examples 7, 16); format: in vitro ADME
# T2 construct: with 500 ng Endopeptidase (NEP) or 10 μg Plasmin
# T2 sequence (P00747 97-580 partner limits assumed, species assumed): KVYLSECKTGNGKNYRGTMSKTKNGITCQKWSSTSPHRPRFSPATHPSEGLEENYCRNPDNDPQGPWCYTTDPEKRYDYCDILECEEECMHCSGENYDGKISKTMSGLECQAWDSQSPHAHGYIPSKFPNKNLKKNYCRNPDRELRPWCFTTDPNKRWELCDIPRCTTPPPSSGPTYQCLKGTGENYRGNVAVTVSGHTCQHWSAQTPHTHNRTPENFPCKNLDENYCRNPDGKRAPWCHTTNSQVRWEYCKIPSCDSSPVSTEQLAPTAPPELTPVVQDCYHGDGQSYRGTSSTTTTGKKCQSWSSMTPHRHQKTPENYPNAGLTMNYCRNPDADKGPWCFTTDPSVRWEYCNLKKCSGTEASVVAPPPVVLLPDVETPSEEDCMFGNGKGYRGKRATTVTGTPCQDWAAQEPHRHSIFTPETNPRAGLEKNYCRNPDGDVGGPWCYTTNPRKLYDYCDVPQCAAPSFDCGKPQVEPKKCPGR
# T2 sequence (P00747 581-810 limits assumed, species assumed): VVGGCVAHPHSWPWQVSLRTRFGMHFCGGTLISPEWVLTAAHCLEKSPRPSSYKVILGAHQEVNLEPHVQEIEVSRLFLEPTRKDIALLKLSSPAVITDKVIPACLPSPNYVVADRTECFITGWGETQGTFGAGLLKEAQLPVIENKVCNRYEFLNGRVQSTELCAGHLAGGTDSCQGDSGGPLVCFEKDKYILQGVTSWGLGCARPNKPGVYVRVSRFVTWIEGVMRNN
# Protocol: (§2) The incubation buffer contained 100 mM Tris/HCl and 150 mM NaCl and the pH was adjusted to 7.2-7.4. In each assay, 100 μl of peptide [500 μM] was incubated with 300 μl buffer (with 500 ng Endopeptidase (NEP) or 10 μg Plasmin) at 37° C. 50 μl aliquots were taken at times 5 min, 30 min, 60 min, 90 min, 180 min and 24 h. The reaction was quenched by heating to 100° C. for 4 min and the remaining peptide concentrations measured by RP-HPLC. Note that the levels of Plasmin required to degrade these peptides was several thousands time the levels present in human plasma.
# as §1
# [2] = molecular target: Endopeptidase (NEP) (EC 3.4.24.11) (Homo sapiens, UniProt P08473); experiment: Stability to enzymatic degradation by NEP (Examples 7, 16); format: in vitro ADME; conditions: over the 360 min measurement period
# Chain of Endopeptidase (NEP) (EC 3.4.24.11) (P08473 whole entry): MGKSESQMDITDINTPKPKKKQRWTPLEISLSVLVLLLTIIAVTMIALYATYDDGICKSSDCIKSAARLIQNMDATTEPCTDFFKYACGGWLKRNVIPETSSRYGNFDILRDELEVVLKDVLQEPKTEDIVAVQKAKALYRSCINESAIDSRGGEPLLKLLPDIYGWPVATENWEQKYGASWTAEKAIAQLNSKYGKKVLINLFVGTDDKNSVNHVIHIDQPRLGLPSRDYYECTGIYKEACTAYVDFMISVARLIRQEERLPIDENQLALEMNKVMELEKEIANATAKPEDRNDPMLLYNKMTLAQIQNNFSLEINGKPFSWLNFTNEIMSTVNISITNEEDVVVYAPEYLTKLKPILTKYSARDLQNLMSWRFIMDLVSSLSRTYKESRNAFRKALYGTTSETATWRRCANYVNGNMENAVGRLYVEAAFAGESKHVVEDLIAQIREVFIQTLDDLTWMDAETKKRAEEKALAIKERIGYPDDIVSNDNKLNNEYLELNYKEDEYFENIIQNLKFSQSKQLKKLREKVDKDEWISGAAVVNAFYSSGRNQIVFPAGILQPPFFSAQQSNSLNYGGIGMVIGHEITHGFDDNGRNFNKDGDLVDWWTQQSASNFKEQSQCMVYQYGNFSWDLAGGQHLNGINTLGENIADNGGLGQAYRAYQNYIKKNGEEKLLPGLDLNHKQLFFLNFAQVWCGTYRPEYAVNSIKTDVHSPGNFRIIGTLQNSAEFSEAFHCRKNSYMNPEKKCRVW
# Protocol: as §2, §1
smiles,measurement,setting,value
CC[C@H](C)[C@H](NC(=O)[C@H](CCCCN)NC(=O)[C@H](CO)NC(=O)[C@H](CC(=O)O)NC(=O)[C@@H](N)CO)C(=O)NCC(=O)N[C@@H](CC(N)=O)C(=O)NCC(=O)N[C@H]1CSSC[C@@H](C(=O)N[C@@H](CC(N)=O)C(=O)N[C@@H](CCCNC(=N)N)C(=O)N[C@H](C(=O)N[C@@H](CCSC)C(=O)N[C@@H](CCC(N)=O)C(=O)N[C@@H](CC(N)=O)C(=O)N2CCC[C@H]2C(=O)N2CCC[C@H]2C(=O)N[C@@H](CCCCN)C(=O)N[C@@H](CCCCN)C(=O)N[C@@H](Cc2ccccc2)C(=O)N[C@@H](CO)C(=O)NCC(=O)N[C@@H](CCC(=O)O)C(=O)O)[C@@H](C)CC)NC(=O)CNC(=O)[C@H](CC(C)C)NC(=O)[C@H](CC(N)=O)NC(=O)[C@H](CO)NC(=O)[C@H](C(C)C)NC(=O)[C@H](Cc2c[nH]cn2)NC(=O)[C@H](CC(N)=O)NC(=O)[C@H]([C@@H](C)CC)NC(=O)[C@H](CCCNC(=N)N)NC(=O)[C@H](CC(=O)O)NC(=O)[C@H]([C@@H](C)CC)NC(=O)[C@H](CCCCN)NC(=O)[C@H](Cc2c[nH]cn2)NC(=O)CNC(=O)[C@H](Cc2ccccc2)NC1=O [TDT] (H-SDSKIGNGCFGHKIDRINHVSNLGCNRIMQNPPKKFSGE-OH; disulfide 9-25),stability against pepsin compared with ANP,pepsin,more stable than ANP
same,EC50,"[1]; EC50, cGMP accumulation in HeLa cells",70.4 nM
same,EC50,"[1]; −Log10EC50 (pEC50) ± Standard Error, cGMP accumulation in HeLa cells",61.9 nM
same,stability against plasmin compared with ANP,Plasmin,more stable than ANP
same,degradation by NEP,[2],minimal degradation
